In series [1] the target is Prostaglandin G/H synthase 1 (Homo sapiens, UniProt P23219).
A further series deals with Carbonic anhydrase 1 (Homo sapiens, UniProt P00915). Briefly: Binding affinity to human CA1 assessed as inhibition constant by stopped flow kinetic assay.
The species named for series [2] is Mus musculus. Briefly: Analgesic activity in mouse assessed protection against acetic acid-induced writhing measured for 20 mins relative to control. The class given is functional. For orientation: In writhing tests, fewer writhes than in controls are read as antinociception.
Another series addresses Carbonic anhydrase 9 (Homo sapiens, UniProt Q16790). Briefly: Binding affinity to human CA9 assessed as inhibition constant by stopped flow kinetic assay.
In a further series the target is Carbonic anhydrase 12 (Homo sapiens, UniProt O43570). Briefly: Binding affinity to human CA12 assessed as inhibition constant by stopped flow kinetic assay.
Chain of Carbonic anhydrase 12 (O43570 whole entry): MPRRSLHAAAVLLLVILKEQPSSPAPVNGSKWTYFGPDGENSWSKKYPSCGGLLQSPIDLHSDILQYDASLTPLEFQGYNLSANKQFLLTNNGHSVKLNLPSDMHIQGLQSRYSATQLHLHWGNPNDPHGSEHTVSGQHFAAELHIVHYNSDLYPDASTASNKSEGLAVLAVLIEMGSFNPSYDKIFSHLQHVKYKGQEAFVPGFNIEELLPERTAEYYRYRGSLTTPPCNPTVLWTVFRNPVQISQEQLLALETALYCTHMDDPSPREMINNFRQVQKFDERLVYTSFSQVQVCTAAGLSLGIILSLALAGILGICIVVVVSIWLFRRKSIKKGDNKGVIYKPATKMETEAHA
The nature of series [3]: Ulcerogenic activity in Albino mouse assessed as histopathological change in stomach by H and E staining based analysis. The class given is toxicity. As to conditions: in vivo.
The subject of series [4] is Rattus norvegicus. Briefly: Anti-inflammatory activity in carrageen-induced paw edema rat model assessed as change in paw height measured immediately (reference value: 0.56 +/- 0.05 %). The class given is functional.
A further series has as its target Carbonic anhydrase 2 (Homo sapiens, UniProt P00918). Briefly: Binding affinity to human CA2 assessed as inhibition constant by stopped flow kinetic assay.
Series [5] has as its system Rattus norvegicus. Briefly: Anti-inflammatory activity in carrageen-induced paw edema rat model assessed as change in paw height measured after 2 hrs (reference value: 0.64 +/- 0.05 %). The class given is functional.
The species named for series [6] is Mus musculus. Briefly: Analgesic activity in mouse assessed reduction in number of acetic acid-induced writhing measured for 20 mins (reference value: 40 +/- 2.9). The series is classed as functional.
Series [7] relates to Rattus norvegicus. Briefly: Anti-inflammatory activity in carrageen-induced paw edema rat model assessed as change in paw height measured after 1 hr (reference value: 0.68 +/- 0.04 %). The series is classed as functional.
In series [8] the test system is Rattus norvegicus. Briefly: Anti-inflammatory activity in carrageen-induced paw edema rat model assessed as change in paw height measured after 3 hrs (reference value: 0.78 +/- 0.08 %). The series is classed as functional.
Series [9] has as its system Rattus norvegicus. Briefly: Anti-inflammatory activity in carrageen-induced paw edema rat model assessed as inhibition of edema measured after 3 hrs relative to control. The series is classed as functional.
A short description of series [10]: Ulcerogenic activity in Albino mouse assessed as inflammation in stomach by H and E staining based analysis. The series is classed as toxicity. As to conditions: in vivo.

These results are taken from ChEMBL document CHEMBL5385885, “4-(5-Amino-pyrazol-1-yl)benzenesulfonamide derivatives as novel multi-target anti-inflammatory agents endowed with inhibitory activity against COX-2, 5-LOX and carbonic anhydrase: Design, synthesis, and biological assessments” (Eur J Med Chem, 2023).

Chain of Prostaglandin G/H synthase 1 (P23219 whole entry): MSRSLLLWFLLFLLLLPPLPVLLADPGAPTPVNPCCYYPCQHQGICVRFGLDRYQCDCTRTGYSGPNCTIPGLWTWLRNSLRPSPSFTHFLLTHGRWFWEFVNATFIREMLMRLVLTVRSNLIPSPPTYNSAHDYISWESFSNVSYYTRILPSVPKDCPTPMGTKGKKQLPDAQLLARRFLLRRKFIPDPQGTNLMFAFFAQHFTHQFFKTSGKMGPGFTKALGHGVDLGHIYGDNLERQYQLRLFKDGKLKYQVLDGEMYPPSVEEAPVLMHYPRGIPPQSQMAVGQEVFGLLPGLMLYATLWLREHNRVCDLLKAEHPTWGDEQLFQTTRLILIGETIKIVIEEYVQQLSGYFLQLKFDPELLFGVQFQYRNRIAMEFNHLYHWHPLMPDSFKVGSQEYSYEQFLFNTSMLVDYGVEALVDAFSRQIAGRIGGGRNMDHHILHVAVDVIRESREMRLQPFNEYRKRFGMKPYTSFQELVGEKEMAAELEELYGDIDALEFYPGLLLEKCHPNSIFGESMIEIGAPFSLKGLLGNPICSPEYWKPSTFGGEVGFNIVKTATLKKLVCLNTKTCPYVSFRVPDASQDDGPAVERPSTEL
Chain of Carbonic anhydrase 1 (P00915 whole entry): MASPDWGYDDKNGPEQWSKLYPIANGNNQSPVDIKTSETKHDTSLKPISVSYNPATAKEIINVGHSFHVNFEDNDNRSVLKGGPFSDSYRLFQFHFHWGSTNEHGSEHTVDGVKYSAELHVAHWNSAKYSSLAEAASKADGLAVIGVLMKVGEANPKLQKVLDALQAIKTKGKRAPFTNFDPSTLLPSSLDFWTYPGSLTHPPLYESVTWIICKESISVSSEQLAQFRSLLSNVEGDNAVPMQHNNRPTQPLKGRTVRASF

Usually IC50 stands for the concentration that gives 50% inhibition. Read a high IC50 as weaker potency in that assay. In [1], `COc1ccc(/C=N/NC(=O)c2cnn(-c3ccc(S(N)(=O)=O)cc3)c2N)cc1` displayed an IC50 of 6 µM. This lies in the single-digit micromolar range.
In series [1], `Nc1c(C(=O)N/N=C/c2ccc([N+](=O)[O-])cc2)cnn1-c1ccc(S(N)(=O)=O)cc1` had an IC50 of 5 µM. This IC50 and that of the compound before are within 1.5-fold of each other.
On to `Nc1c(C(=O)N/N=C/c2cccs2)cnn1-c1ccc(S(N)(=O)=O)cc1`, for which inhibition in series [1] was half-maximal at 9.5 µM (IC50).
`CN(C)c1ccc(/C=N/NC(=O)c2cnn(-c3ccc(S(N)(=O)=O)cc3)c2N)cc1` displayed an IC50 in series [1] of 7 µM. The IC50 values of the last two compounds are within 1.5-fold of each other.
The same measure, in the same setting: the result for `Nc1c(C(=O)N/N=C/c2cccc([N+](=O)[O-])c2)cnn1-c1ccc(S(N)(=O)=O)cc1` reads 5 µM.
For orientation: Ki means a measure of affinity in units of concentration, obtained from inhibition or displacement. As for `Nc1c(C(=O)N/N=C/c2ccc(O)cc2)cnn1-c1ccc(S(N)(=O)=O)cc1`, the Ki on Carbonic anhydrase 1 was determined as 0.134 µM; at Carbonic anhydrase 9, 0.0489 µM; on Carbonic anhydrase 12, 0.0058 µM; on Carbonic anhydrase 2, 0.0269 µM. Further, the Activity in the series listed under Mus musculus [2] is reported as 52.5%; in series [3], “Non-Toxic”; with Rattus norvegicus [4] it was 0.48%; in the series on Rattus norvegicus [5], 0.62%; in the series filed under Mus musculus [6], 19; with Rattus norvegicus [7], 0.52%. In addition, the Activity in the series with Rattus norvegicus [8] was 0.54%. The compound also displayed an IC50 in [1] of 12.5 µM. For the same compound, in the series with Rattus norvegicus [9], the “inhibition (INH)” value is on record as 31%.
Turning to `O=C(O)Cc1ccccc1Nc1c(Cl)cccc1Cl` [DICLOFENAC], the Activity in the series filed under Mus musculus [2] is on record as 70%; in series [3], “Toxic”; in the series on Rattus norvegicus [4] it was 0.52%; in series [10], “Toxic”; with Rattus norvegicus [5] it was 0.32%; in the series filed under Mus musculus [6], 12. For the same compound, the Activity came to 0.28% in the series with Rattus norvegicus [7] and 0.32% in the series on Rattus norvegicus [8]. In the series on Rattus norvegicus [9], the “inhibition (INH)” value was determined as 59%.
Regarding `Nc1c(C(=O)N/N=C/c2ccccc2)cnn1-c1ccc(S(N)(=O)=O)cc1`, in series [3], the Activity entry is recorded as “Non-Toxic”. Further, the IC50 in [1] turned out to be 10.4 µM.
As to `Cc1ccc(-c2cc(C(F)(F)F)nn2-c2ccc(S(N)(=O)=O)cc2)cc1` [CELECOXIB], the Activity in the series filed under Mus musculus [2] is on record as 60%; in series [3], “Non-Toxic”; with Rattus norvegicus [4], 0.5%; with Rattus norvegicus [5], 0.52%; in the series filed under Mus musculus [6] it was 16; with Rattus norvegicus [7], 0.44%. For the same compound, in the series with Rattus norvegicus [8], the Activity came to 0.48%. In the series on Rattus norvegicus [9], the “inhibition (INH)” value worked out at 38.5%.
With `Nc1c(C(=O)N/N=C/c2ccccc2[N+](=O)[O-])cnn1-c1ccc(S(N)(=O)=O)cc1`, half-maximal inhibition in [1] (IC50) required 4.8 µM. In other words, the single-digit micromolar range.
Same read-out and setting: as for `Nc1c(C(=O)N/N=C/c2ccc(Cl)cc2)cnn1-c1ccc(S(N)(=O)=O)cc1`, the figure is 8 µM; as for `Nc1c(C(=O)N/N=C/c2ccccc2Cl)cnn1-c1ccc(S(N)(=O)=O)cc1`, 10.5 µM.
